Measured values reported in patent US12178210B2, “Insect attractant and killing system” (priority 2020, dated 2024).
Read-outs that look alike come from different tables or passages of the source.

Assays:
[1] = for Attractant Release Rate (5-day average per time point): 15 g
Excerpt: All prototype lure devices (i.e., the attractant receptacle and permeable membrane with enclosed volatile insect attractant) were constructed using polypropylene/calcium carbonate film (UV8) for the permeable membrane and Scotchpak™ (3M) polyester laminate film for the impermeable barrier material. Each lure device measured approximately 11.5 cm×5.5 cm with a 1.6 mm ( 1/16 in) diameter spherical punch in the impermeable layer exposing the membrane and an ˜8 mm ( 5/16 in) diameter heat seal around the circumference of the punch (referred to as a ring seal). […] Prior to being deployed the lures were weighed on an analytical balance (Sartorius, Universal; resolution of 0.01 g). Prototype lures were attached to a cord that ran the length of ventilated laboratory fume hood, with 5-8 cm (2-3 in) separating each lure in an open, ventilated room at the indicated temperature (18-20° C. or 39-41° C.). Every 2-3 days the lures were removed from the cord and weighed on the same scale. Lure weight was recorded and the weight loss (g/day) was calculated. In addition to prototype lures, two controls were included in the study consisting of a current Suterra lure product (WHF lure) and a competitor product (Comp. Prod. 1).

[2] = field, Valencia
Protocol: Every two weeks samples of the attractant were weighed to determine the mass. From the mass, the mass that had been released, the mass remaining, and the amount of ammonia released was determined.

Q: What does the source list for `N.N.O=C(O)O` [Ammonium Carbonate, ammonium carbonate]?
A: Release Rate ([1]; 40° C., 16 hours, UV8 membrane, 1.6 mm orifice): 0.39 g/day; Release Rate ([1]; 40° C., 16 hours, second, unexplained block of rows): 0.02 g/day; Release Rate ([1]; 40° C., 24 hours, UV8 membrane, 1.6 mm orifice): 0.37 g/day; Release Rate ([1]; 40° C., 24 hours, second, unexplained block of rows): 0.03 g/day; Release Rate ([1]; 40° C., 51 hours, UV8 membrane, 1.6 mm orifice): 0.36 g/day; Release Rate ([1]; 40° C., 51 hours, second, unexplained block of rows): 0.05 g/day; Release Rate ([1]; 40° C., 88 hours, UV8 membrane, 1.6 mm orifice): 0.36 g/day; Release Rate ([1]; 40° C., 88 hours, second, unexplained block of rows): 0.09 g/day; Release Rate ([1]; 40° C., 96 hours, UV8 membrane, 1.6 mm orifice): 0.36 g/day; Release Rate ([1]; 40° C., 96 hours, second, unexplained block of rows): 0.09 g/day; Release Rate ([1]; 40° C., 112 hours, UV8 membrane, 1.6 mm orifice): 0.36 g/day; Release Rate ([1]; 40° C., 112 hours, second, unexplained block of rows): 0.10 g/day; Release Rate ([1]; 40° C., 120 hours, UV8 membrane, 1.6 mm orifice): 0.36 g/day; Release Rate ([1]; 40° C., 120 hours, second, unexplained block of rows): 0.11 g/day; Release Rate ([1]; 40° C., 144 hours, UV8 membrane, 1.6 mm orifice): 0.36 g/day; Release Rate ([1]; 40° C., 144 hours, second, unexplained block of rows): 0.13 g/day; Release Rate ([1]; 40° C., 168 hours, UV8 membrane, 1.6 mm orifice): 0.35 g/day; Release Rate ([1]; 40° C., 168 hours, second, unexplained block of rows): 0.15 g/day; Attractant Release Rate (5-day average per time point) ([1]; 40° C., day 5, UV8 membrane, 1.6 mm orifice): 391.6 mg/day; Attractant Release Rate (5-day average per time point) ([1]; 40° C., day 10, UV8 membrane, 1.6 mm orifice): 402.8 mg/day; Attractant Release Rate (5-day average per time point) ([1]; 40° C., day 15, UV8 membrane, 1.6 mm orifice): 396.5 mg/day; Attractant Release Rate (5-day average per time point) ([1]; 40° C., day 20, UV8 membrane, 1.6 mm orifice): 316.7 mg/day; Attractant Release Rate (5-day average per time point) ([1]; 40° C., day 25, UV8 membrane, 1.6 mm orifice): 198.0 mg/day; Attractant Release Rate (5-day average per time point) ([1]; 40° C., day 30, UV8 membrane, 1.6 mm orifice): 156.0 mg/day; Attractant Release Rate (5-day average per time point) ([1]; 40° C., day 35, UV8 membrane, 1.6 mm orifice): 112.0 mg/day; Attractant Release Rate (5-day average per time point) ([1]; 40° C., day 40, UV8 membrane, 1.6 mm orifice): 108.4 mg/day; Attractant Release Rate (5-day average per time point) ([1]; 40° C., day 45, UV8 membrane, 1.6 mm orifice): 100.4 mg/day; Attractant Release Rate (5-day average per time point) ([1]; 40° C., day 49, UV8 membrane, 1.6 mm orifice): 98.0 mg/day; Attractant Release Rate (5-day average per time point) ([1]; 40° C., day 55, UV8 membrane, 1.6 mm orifice): 87.7 mg/day; Attractant Release Rate (5-day average per time point) ([1]; Ambient Temperature, day 5, UV8 membrane, 1.6 mm orifice): 97 mg/day; Attractant Release Rate (5-day average per time point) ([1]; Ambient Temperature, day 10, UV8 membrane, 1.6 mm orifice): 99.5 mg/day; Attractant Release Rate (5-day average per time point) ([1]; Ambient Temperature, day 15, UV8 membrane, 1.6 mm orifice): 101.9 mg/day; Attractant Release Rate (5-day average per time point) ([1]; Ambient Temperature, day 20, UV8 membrane, 1.6 mm orifice): 104.2 mg/day; Attractant Release Rate (5-day average per time point) ([1]; Ambient Temperature, day 25, UV8 membrane, 1.6 mm orifice): 100.5 mg/day; Attractant Release Rate (5-day average per time point) ([1]; Ambient Temperature, day 30, UV8 membrane, 1.6 mm orifice): 101.3 mg/day; Attractant Release Rate (5-day average per time point) ([1]; Ambient Temperature, day 35, UV8 membrane, 1.6 mm orifice): 100.0 mg/day; Attractant Release Rate (5-day average per time point) ([1]; Ambient Temperature, day 40, UV8 membrane, 1.6 mm orifice): 86.0 mg/day; Attractant Release Rate (5-day average per time point) ([1]; Ambient Temperature, day 45, UV8 membrane, 1.6 mm orifice): 86.5 mg/day; Attractant Release Rate (5-day average per time point) ([1]; Ambient Temperature, day 49, UV8 membrane, 1.6 mm orifice): 84.4 mg/day; Attractant Release Rate (5-day average per time point) ([1]; Ambient Temperature, day 55, UV8 membrane, 1.6 mm orifice): 83.8 mg/day; Release Rate ([1]; Ambient, 16 hours, UV8 membrane, 1.6 mm orifice): 0.12 g/day; Release Rate ([1]; Ambient, 16 hours, second, unexplained block of rows): 0.01 g/day; Release Rate ([1]; Ambient, 24 hours, UV8 membrane, 1.6 mm orifice): 0.12 g/day; Release Rate ([1]; Ambient, 24 hours, second, unexplained block of rows): 0.01 g/day; Release Rate ([1]; Ambient, 51 hours, UV8 membrane, 1.6 mm orifice): 0.12 g/day; Release Rate ([1]; Ambient, 51 hours, second, unexplained block of rows): 0.04 g/day; Release Rate ([1]; Ambient, 88 hours, UV8 membrane, 1.6 mm orifice): 0.11 g/day; Release Rate ([1]; Ambient, 88 hours, second, unexplained block of rows): 0.06 g/day; Release Rate ([1]; Ambient, 96 hours, UV8 membrane, 1.6 mm orifice): 0.12 g/day; Release Rate ([1]; Ambient, 96 hours, second, unexplained block of rows): 0.07 g/day; Release Rate ([1]; Ambient, 112 hours, UV8 membrane, 1.6 mm orifice): 0.11 g/day; Release Rate ([1]; Ambient, 112 hours, second, unexplained block of rows): 0.08 g/day; Release Rate ([1]; Ambient, 120 hours, UV8 membrane, 1.6 mm orifice): 0.12 g/day; Release Rate ([1]; Ambient, 120 hours, second, unexplained block of rows): 0.08 g/day; Release Rate ([1]; Ambient, 144 hours, UV8 membrane, 1.6 mm orifice): 0.11 g/day; Release Rate ([1]; Ambient, 144 hours, second, unexplained block of rows): 0.08 g/day; Release Rate ([1]; Ambient, 168 hours, UV8 membrane, 1.6 mm orifice): 0.11 g/day; Release Rate ([1]; Ambient, 168 hours, second, unexplained block of rows): 0.11 g/day; Avg. Mass Loss ([2]; week 0, ave. temp. 25.10 ° C): 0.00 g; Avg. Mass Remaining ([2]; week 0, ave. temp. 25.10 ° C): 14.94 g; Avg. Release Rate ([2]; week 0, ave. temp. 25.10 ° C): 0.000 g/day; Avg. Mass Loss ([2]; week 2, ave. temp. 26.30 ° C): 0.48 g; Avg. Mass Remaining ([2]; week 2, ave. temp. 26.30 ° C): 14.46 g; Avg. Release Rate ([2]; week 2, ave. temp. 26.30 ° C): 0.035 g/day; Avg. Mass Loss ([2]; week 4, ave. temp. 26.90 ° C): 1.57 g; Avg. Mass Remaining ([2]; week 4, ave. temp. 26.90 ° C): 13.37 g; Avg. Release Rate ([2]; week 4, ave. temp. 26.90 ° C): 0.078 g/day; Avg. Mass Loss ([2]; week 6, ave. temp. 27.10 ° C): 2.73 g; Avg. Mass Remaining ([2]; week 6, ave. temp. 27.10 ° C): 12.21 g; Avg. Release Rate ([2]; week 6, ave. temp. 27.10 ° C): 0.083 g/day; Avg. Mass Loss ([2]; week 8, ave. temp. 24.40 ° C): 3.77 g; Avg. Mass Remaining ([2]; week 8, ave. temp. 24.40 ° C): 11.17 g; Avg. Release Rate ([2]; week 8, ave. temp. 24.40 ° C): 0.074 g/day; Avg. Mass Loss ([2]; week 10, ave. temp. 22.60 ° C): 4.09 g; Avg. Mass Remaining ([2]; week 10, ave. temp. 22.60 ° C): 10.85 g; Avg. Release Rate ([2]; week 10, ave. temp. 22.60 ° C): 0.023 g/day; Avg. Mass Loss ([2]; week 12, ave. temp. 21.50 ° C): 4.66 g; Avg. Mass Remaining ([2]; week 12, ave. temp. 21.50 ° C): 10.28 g; Avg. Release Rate ([2]; week 12, ave. temp. 21.50 ° C): 0.041 g/day; Avg. Mass Loss ([2]; week 14, ave. temp. 19.90 ° C): 4.93 g; Avg. Mass Remaining ([2]; week 14, ave. temp. 19.90 ° C): 10.01 g; Avg. Release Rate ([2]; week 14, ave. temp. 19.90 ° C): 0.019 g/day; Avg. Mass Loss ([2]; week 16, ave. temp. 17.70 ° C): 5.11 g; Avg. Mass Remaining ([2]; week 16, ave. temp. 17.70 ° C): 9.83 g; Avg. Release Rate ([2]; week 16, ave. temp. 17.70 ° C): 0.013 g/day; Avg. Mass Loss ([2]; week 18, ave. temp. 15.30 ° C): 5.30 g; Avg. Mass Remaining ([2]; week 18, ave. temp. 15.30 ° C): 9.64 g; Avg. Release Rate ([2]; week 18, ave. temp. 15.30 ° C): 0.013 g/day; Avg. Mass Loss ([2]; week 20, ave. temp. 14.40 ° C): 5.59 g; Avg. Mass Remaining ([2]; week 20, ave. temp. 14.40 ° C): 9.35 g; Avg. Release Rate ([2]; week 20, ave. temp. 14.40 ° C): 0.021 g/day; Avg. Mass Loss ([2]; week 24, ave. temp. 11.70 ° C): 5.86 g; Avg. Mass Remaining ([2]; week 24, ave. temp. 11.70 ° C): 9.08 g; Avg. Release Rate ([2]; week 24, ave. temp. 11.70 ° C): 0.009 g/day; Avg. Mass Loss ([2]; week 28, ave. temp. […] C): 6.20 g; Avg. Mass Remaining ([2]; week 28, ave. temp. […] C): 8.74 g; Avg. Release Rate ([2]; week 28, ave. temp. […] C): 0.012 g/day; Avg. Mass Loss ([2]; week 31, ave. temp. […] C): 6.80 g; Avg. Mass Remaining ([2]; week 31, ave. temp. […] C): 8.14 g; Avg. Release Rate ([2]; week 31, ave. temp. […] C): 0.028 g/day; Avg. Mass Loss ([2]; week 35, ave. temp. 12.60 ° C): 7.29 g; Avg. Mass Remaining ([2]; week 35, ave. temp. 12.60 ° C): 7.65 g; Avg. Release Rate ([2]; week 35, ave. temp. 12.60 ° C): 0.018 g/day; Avg. Mass Loss ([2]; week 38, ave. temp. 13.50 ° C): 7.56 g; Avg. Mass Remaining ([2]; week 38, ave. temp. 13.50 ° C): 7.38 g; Avg. Release Rate ([2]; week 38, ave. temp. 13.50 ° C): 0.013 g/day; Avg. Mass Loss ([2]; week 39, ave. temp. 13.30 ° C): 7.80 g; Avg. Mass Remaining ([2]; week 39, ave. temp. 13.30 ° C): 7.14 g; Avg. Release Rate ([2]; week 39, ave. temp. 13.30 ° C): 0.033 g/day; Avg. Mass Loss ([2]; week 41, ave. temp. 15.80 ° C): 8.12 g; Avg. Mass Remaining ([2]; week 41, ave. temp. 15.80 ° C): 6.82 g; Avg. Release Rate ([2]; week 41, ave. temp. 15.80 ° C): 0.023 g/day; Avg. Mass Loss ([2]; week 43, ave. temp. 16.50 ° C): 8.44 g; Avg. Mass Remaining ([2]; week 43, ave. temp. 16.50 ° C): 6.50 g; Avg. Release Rate ([2]; week 43, ave. temp. 16.50 ° C): 0.023 g/day; Avg. Mass Loss ([2]; week 46, ave. temp. 18.10 ° C): 9.17 g; Avg. Mass Remaining ([2]; week 46, ave. temp. 18.10 ° C): 5.77 g; Avg. Release Rate ([2]; week 46, ave. temp. 18.10 ° C): 0.035 g/day; Avg. Mass Loss ([2]; week 47, ave. temp. 20.40 ° C): 9.48 g; Avg. Mass Remaining ([2]; week 47, ave. temp. 20.40 ° C): 5.46 g; Avg. Release Rate ([2]; week 47, ave. temp. 20.40 ° C): 0.044 g/day
